This assay deals with NRF2 (NQO1 activity as marker for NRF2 activation), BEAS-2B cells. Nature of the assay: BEAS-2B NQO1 MTT Assay. In kind it is cell-based. Conditions: Homo sapiens, EC50 of NQO1 specific activity induction, 48 hours incubation, read-out: EC50. The method in brief:
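BEAS-2B cells were exposed to compound for 48 h at 37° C, 5% CO2, then lysed. NQO1 activity was measured kinetically by MTT reduction at 570 nm over 30 minutes; EC50 came from 3-parameter fit of Delta OD/min versus log concentration.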

In the case of `CC[C@@H]1CN(Cc2cc([C@@H](c3ccc4c(nnn4CC)c3C)C(C)(C)C(N)=O)ccc2C)S(=O)(=O)c2ccccc2O1` [Example 87, (S)-3-(3-(((R)-4-Ethyl-1,1-dioxido-3,4-dihydro-2H-benzo[b][1,4,5]oxathiazepin-2-yl)methyl)-4-methylphenyl)-3-(1-ethyl-4-methyl-1H-benzo[d][1,2,3]triazol-5-yl)-2,2-dimethylpropanamide], the EC50 is 1 to 10 nM. On to `CC[C@H]1Cc2ccc(C(F)(F)F)cc2S(=O)(=O)N(Cc2cc([C@@H](c3ccc4c(nnn4CC)c3C)C(C)(C)C(N)=O)ccc2C)C1` [Example 88, (S)-3-(3-(((S)-4-ethyl-1,1-dioxido-8-(trifluoromethyl)-4,5-dihydrobenzo[f][1,2]thiazepin-2(3H)-yl)methyl)-4-methylphenyl)-3-(1-ethyl-4-methyl-1H-benzo[d][1,2,3]triazol-5-yl)-2,2-dimethylpropanamide], for which the EC50 was in the range of 1 to 10 nM. Next, `CC[C@@H]1CN(Cc2cc([C@@H](c3ccc4c(nnn4C)c3C)C(C)(C)C(N)=O)ccc2Cl)S(=O)(=O)c2ccccc2O1` [Example 89, (S)-3-(4-chloro-3-(((R)-4-ethyl-1,1-dioxido-3,4-dihydro-2H-benzo[b][1,4,5]oxathiazepin-2-yl)methyl)phenyl)-3-(1,4-dimethyl-1H-benzo[d][1,2,3]triazol-5-yl)-2,2-dimethylpropanamide]: 10 to 100 nM; `CC[C@H]1Cc2ccc(C(F)(F)F)cc2S(=O)(=O)N(Cc2cc([C@@H](OCc3cn(CC)nn3)C(C)(C)C(N)=O)ccc2C)C1` [Example 90, (R)-3-(3-(((S)-4-ethyl-1,1-dioxido-8-(trifluoromethyl)-4,5-dihydrobenzo[f][1,2]thiazepin-2(3H)-yl)methyl)-4-methylphenyl)-3-((1-ethyl-1H-1,2,3-triazol-4-yl)methoxy)-2,2-dimethylpropanamide]: 100 to 1000 nM; `CC[C@@H]1CN(Cc2cc([C@@H](c3ccc4c(nnn4CC)c3C)C(C)(C)C(=O)Nc3cncnc3)ccc2C)S(=O)(=O)c2ccccc2O1` [Example 91, (S)-3-(3-(((R)-4-Ethyl-1,1-dioxido-3,4-dihydro-2H-benzo[b][1,4,5]oxathiazepin-2-yl)methyl)-4-methylphenyl)-3-(1-ethyl-4-methyl-1H-benzo[d][1,2,3]triazol-5-yl)-2,2-dimethyl-N-(pyrimidin-5-yl)propanamide]: 1 to 10 nM. As for `CC[C@H]1Cc2ccc(C(F)(F)F)cc2S(=O)(=O)N(Cc2cc([C@@H](c3ccc4c(nnn4CC)c3C)C(C)(C)C(=O)Nc3cncnc3)ccc2C)C1` [Example 92, (S)-3-(3-(((S)-4-Ethyl-1,1-dioxido-8-(trifluoromethyl)-4,5-dihydrobenzo[f][1,2]thiazepin-2(3H)-yl)methyl)-4-methylphenyl)-3-(1-ethyl-4-methyl-1H-benzo[d][1,2,3]triazol-5-yl)-2,2-dimethyl-N-(pyrimidin-5-yl)propanamide], the 50% effective concentration (EC50) is 1 to 10 nM.

In the case of `CC[C@H]1Cc2ccccc2S(=O)(=O)N(Cc2cc([C@@H](c3ccc4c(nnn4CC)c3C)C(C)(C)C(=O)Nc3cncnc3)ccc2C)C1` [Example 93, (S)-3-(3-(((S)-4-Ethyl-1,1-dioxido-4,5-dihydrobenzo[f][1,2]thiazepin-2(3H)-yl)methyl)-4-methylphenyl)-3-(1-ethyl-4-methyl-1H-benzo[d][1,2,3]triazol-5-yl)-2,2-dimethyl-N-(pyrimidin-5-yl)propanamide], the concentration giving a half-maximal response (EC50) lay within 1 to 10 nM. Next, `CCn1nnc2c(C)c([C@H](c3ccc(C)c(CN4C[C@@H](C)Cc5cc(C(F)(F)F)ccc5S4(=O)=O)c3)C(C)(C)C(=O)Nc3cncnc3)ccc21` [Example 94, (S)-3-(1-Ethyl-4-methyl-1H-benzo[d][1,2,3]triazol-5-yl)-2,2-dimethyl-3-(4-methyl-3-(((S)-4-methyl-1,1-dioxido-7-(trifluoromethyl)-4,5-dihydrobenzo[f][1,2]thiazepin-2(3H)-yl)methyl)phenyl)-N-(pyrimidin-5-yl)propanamide]: 1 to 10 nM.

Values taken from US11078216B2, “Bisaryl amides as NRF2 activators” (GLAXOSMITHKLINE INTELLECTUAL PROPERTY DEVELOPMENT LIMITED, priority 2016, dated 2021).
